Data from PMC5242521 (PLoS ONE, 2017).
pIC50: −log10 of the molar value. Where two headings read alike, the source gives them in different places.

Columns and labels:
Format in all cases: cell-based
OCT1 = biological target: T1, OCT1 (Homo sapiens, UniProt O15245); assay: Dopamine accumulation in OCT1-transfected HEK293 cells
T1 sequence (O15245 1-554): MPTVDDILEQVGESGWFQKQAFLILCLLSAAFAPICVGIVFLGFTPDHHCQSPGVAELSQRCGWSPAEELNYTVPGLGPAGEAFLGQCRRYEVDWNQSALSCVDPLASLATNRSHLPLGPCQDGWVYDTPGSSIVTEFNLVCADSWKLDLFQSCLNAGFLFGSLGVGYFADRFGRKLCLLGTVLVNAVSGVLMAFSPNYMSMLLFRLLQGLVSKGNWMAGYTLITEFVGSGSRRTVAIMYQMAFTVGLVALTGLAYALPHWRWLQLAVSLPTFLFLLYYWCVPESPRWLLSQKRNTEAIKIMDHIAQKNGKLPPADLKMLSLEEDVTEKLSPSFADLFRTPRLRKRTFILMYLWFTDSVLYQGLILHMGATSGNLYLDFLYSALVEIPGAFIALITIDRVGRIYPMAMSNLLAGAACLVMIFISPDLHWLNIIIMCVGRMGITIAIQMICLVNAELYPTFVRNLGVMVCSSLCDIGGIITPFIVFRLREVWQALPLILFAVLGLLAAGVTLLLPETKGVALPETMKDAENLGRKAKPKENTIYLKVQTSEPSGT
Method: HEK-MOCK and HEK-OCT1 cells were incubated with transport assay medium containing 11 nM 3,4-[Ring-2,5,6-^3H]-dopamine, in the absence or presence of the reference OCT1 inhibitor verapamil or of pyrethroids for 5 min at 37°C in the transport assay medium described above. After washing twice with PBS, cells were lysed in distilled water and intracellular accumulation of dopamine was finally measured by scintillation counting.
(A) HEK-OCT1 and HEK-MOCK cells were incubated with 11 nM 3,4-[Ring-2,5,6-^3H]-dopamine in the absence or presence of the reference OCT1 inhibitor verapamil (100 μM) for 5 min at 37°C. Intracellular accumulation of 3,4-[Ring-2,5,6-^3H]-dopamine was then determined by scintillation counting. […] Intracellular accumulation of 3,4-[Ring-2,5,6-^3H]-dopamine was then determined by scintillation counting. Data are expressed as percentages of OCT1-mediated transport of dopamine in control pyrethroid-unexposed cells, determined by subtracting accumulation of dopamine in HEK-MOCK cells from that in HEK-OCT1 cells in the absence of pyrethroids, arbitrarily set at 100% and indicated by a dotted line on the graph.

MRP2 = biological target: T2, MRP2 (Homo sapiens, UniProt Q92887); assay: MRP2 activity: CF accumulation in HuH-7 cells; settings: for inhibition at 100 μM: human, pH 7.4
T2 construct: multidrug resistance-associated protein (MRP) 2/ABCC2-expressing human hepatoma HuH-7 cells; endogenous in cells; host or cells: HuH-7 human hepatoma cells
Method: (§1) The initial tested concentration of pyrethroids was 100 μM.

OATP1B1 = biological target: T3, OATP1B1 (Homo sapiens, UniProt Q9Y6L6); assay: OATP1B1 activity: E3S accumulation in CHO-OATP1B1 cells; settings: for inhibition at 100 μM: human, pH 7.4
T3 construct: expressed in transfected cells; host or cells: CHO
T3 sequence (Q9Y6L6 1-691): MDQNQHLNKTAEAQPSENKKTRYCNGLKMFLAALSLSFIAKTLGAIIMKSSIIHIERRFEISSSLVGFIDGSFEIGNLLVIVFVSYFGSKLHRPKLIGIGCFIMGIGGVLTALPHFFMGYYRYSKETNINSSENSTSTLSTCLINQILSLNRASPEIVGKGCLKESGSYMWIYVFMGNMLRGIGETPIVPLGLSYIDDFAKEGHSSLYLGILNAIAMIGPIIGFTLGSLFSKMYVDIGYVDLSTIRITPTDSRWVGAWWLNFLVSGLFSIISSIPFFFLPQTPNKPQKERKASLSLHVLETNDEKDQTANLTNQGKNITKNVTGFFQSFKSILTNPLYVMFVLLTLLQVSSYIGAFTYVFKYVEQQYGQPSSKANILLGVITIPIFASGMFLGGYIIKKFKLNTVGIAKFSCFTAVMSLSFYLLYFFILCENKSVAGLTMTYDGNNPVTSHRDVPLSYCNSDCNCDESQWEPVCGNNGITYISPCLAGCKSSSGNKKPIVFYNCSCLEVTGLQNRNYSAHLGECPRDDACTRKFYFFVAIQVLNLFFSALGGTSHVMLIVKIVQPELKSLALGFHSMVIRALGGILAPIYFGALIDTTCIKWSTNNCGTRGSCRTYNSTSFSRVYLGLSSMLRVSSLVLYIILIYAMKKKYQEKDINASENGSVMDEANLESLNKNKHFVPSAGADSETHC
Method: as §1

BCRP = biological target: T4, BCRP (Homo sapiens, UniProt Q9UNQ0); assay: BCRP activity: Hoechst 33342 retention in HEK-BCRP cells; settings: for inhibition at 90 min, 100 μM: human
T4 construct: expressed in transfected cells; host or cells: HEK293
T4 sequence (Q9UNQ0 1-655): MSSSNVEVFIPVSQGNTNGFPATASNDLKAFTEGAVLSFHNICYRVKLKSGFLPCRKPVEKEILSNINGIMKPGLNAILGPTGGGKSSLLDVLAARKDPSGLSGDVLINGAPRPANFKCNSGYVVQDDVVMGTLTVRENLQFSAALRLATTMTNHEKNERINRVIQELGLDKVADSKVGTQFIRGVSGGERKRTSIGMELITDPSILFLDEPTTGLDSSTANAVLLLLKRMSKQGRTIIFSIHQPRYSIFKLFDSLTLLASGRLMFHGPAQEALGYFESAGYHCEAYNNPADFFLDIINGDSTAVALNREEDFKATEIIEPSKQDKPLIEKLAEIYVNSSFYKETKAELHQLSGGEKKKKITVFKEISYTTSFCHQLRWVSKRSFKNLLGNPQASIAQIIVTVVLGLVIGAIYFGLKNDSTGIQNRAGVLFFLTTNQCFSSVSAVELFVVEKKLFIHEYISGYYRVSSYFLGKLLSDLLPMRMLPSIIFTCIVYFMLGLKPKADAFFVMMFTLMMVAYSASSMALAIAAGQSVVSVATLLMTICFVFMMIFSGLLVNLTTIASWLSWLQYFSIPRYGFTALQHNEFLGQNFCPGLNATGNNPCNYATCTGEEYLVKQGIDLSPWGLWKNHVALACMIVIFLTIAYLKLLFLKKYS
Method: For retention assay (used for BCRP activity), HEK-BCRP cells cultured in 48-well plates were first loaded at 37°C with transport assay (200 μL/well) containing 16.2 μM Hoechst 33342 for 30 min. After washing twice in PBS (200 μL/well/washing), cells were reincubated in Hoechst 33342-free transport assay medium (200 μL/well) at 37°C for 90 min in the absence or presence of pyrethroids or of the BCRP reference inhibitor fumitremorgin C used at 10 μM. Cells were next lysed in distilled water (155 μL/well) after washing twice in PBS (200 μL/well/washing). The cell lysate was finally used for determining cellular protein content and intracellular retention of Hoechst 33342 (by spectrofluorimetry: excitation and emission wavelengths were 355 and 460 nm, respectively), as described above.
as §1

T2 sequence (Q92887 whole entry): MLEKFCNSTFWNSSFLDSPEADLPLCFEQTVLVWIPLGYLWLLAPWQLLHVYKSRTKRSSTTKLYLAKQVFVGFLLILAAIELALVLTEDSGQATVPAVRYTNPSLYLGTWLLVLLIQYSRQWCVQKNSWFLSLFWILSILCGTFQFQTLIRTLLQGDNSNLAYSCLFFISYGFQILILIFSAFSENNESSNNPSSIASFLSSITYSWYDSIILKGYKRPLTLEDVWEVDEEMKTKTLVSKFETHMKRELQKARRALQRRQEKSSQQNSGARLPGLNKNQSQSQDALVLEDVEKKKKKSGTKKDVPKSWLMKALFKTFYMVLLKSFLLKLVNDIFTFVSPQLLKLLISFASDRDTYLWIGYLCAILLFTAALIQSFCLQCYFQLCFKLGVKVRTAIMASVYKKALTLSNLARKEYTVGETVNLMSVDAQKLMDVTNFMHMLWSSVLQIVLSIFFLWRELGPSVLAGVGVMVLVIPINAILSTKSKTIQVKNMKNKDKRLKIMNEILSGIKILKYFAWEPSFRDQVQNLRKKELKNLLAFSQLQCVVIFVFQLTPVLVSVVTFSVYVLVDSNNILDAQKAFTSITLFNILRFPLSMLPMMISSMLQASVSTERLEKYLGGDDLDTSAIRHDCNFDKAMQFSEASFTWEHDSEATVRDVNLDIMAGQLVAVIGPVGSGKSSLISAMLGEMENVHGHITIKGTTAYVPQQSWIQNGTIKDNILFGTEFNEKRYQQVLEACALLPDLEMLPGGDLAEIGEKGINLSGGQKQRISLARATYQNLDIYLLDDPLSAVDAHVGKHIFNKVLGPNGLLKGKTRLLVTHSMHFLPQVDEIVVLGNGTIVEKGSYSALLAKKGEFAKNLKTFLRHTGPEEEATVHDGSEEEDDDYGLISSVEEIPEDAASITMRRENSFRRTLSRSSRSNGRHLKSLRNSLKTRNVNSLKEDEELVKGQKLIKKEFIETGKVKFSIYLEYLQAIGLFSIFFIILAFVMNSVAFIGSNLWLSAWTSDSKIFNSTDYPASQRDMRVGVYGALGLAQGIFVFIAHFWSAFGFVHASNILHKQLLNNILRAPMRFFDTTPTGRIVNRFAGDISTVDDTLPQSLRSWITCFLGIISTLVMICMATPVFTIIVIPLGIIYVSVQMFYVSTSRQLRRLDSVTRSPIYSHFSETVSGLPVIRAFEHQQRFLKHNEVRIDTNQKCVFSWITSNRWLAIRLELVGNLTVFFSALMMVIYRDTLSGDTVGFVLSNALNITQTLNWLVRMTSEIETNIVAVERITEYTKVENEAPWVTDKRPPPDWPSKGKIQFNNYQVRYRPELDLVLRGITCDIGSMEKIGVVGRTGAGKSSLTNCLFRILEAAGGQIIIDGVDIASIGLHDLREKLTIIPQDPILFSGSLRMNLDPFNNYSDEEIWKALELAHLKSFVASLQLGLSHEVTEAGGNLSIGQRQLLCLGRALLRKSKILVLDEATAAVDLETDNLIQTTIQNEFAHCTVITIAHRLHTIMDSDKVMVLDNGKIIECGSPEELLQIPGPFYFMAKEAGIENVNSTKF

Compound	effect on OCT1-mediated transport of dopamine (OCT1; pyrethroid 10, 100 or 300 μM, 11 nM dopamine, 5 min)	pIC50 (MRP2)	inhibition at 100 μM (MRP2) [%]	pIC50 (OATP1B1)	inhibition at 100 μM (OATP1B1) [%]	pIC50 (BCRP)	inhibition at 90 min, 100 μM (BCRP) [%]	effect on OCT1-mediated dopamine uptake (OCT1; pyrethroid 10 μM)	inhibition at 100 μM (MRP2; pyrethroid 100 μM, HuH-7 cells, CF, read-out: inhibition of MRP2 activity) [%]	inhibition at 100 μM (OATP1B1; pyrethroid 100 μM, CHO-OATP1B1 cells, E3S, read-out: inhibition of OATP1B1 activity) [%]	inhibition at 90 min, 100 μM (BCRP; pyrethroid 100 μM, HEK-BCRP cells, Hoechst 33342, read-out: inhibition of BCRP activity) [%]
C=CCC1=C(C)C(OC(=O)C2C(C=C(C)C)C2(C)C)CC1=O (centres unmarked) [allethrin]	significantly inhibit	4.32	83.8	4.78	> 85	4.37	83.9	–	–	–	–
CC(C)=CC1C(C(=O)OCN2C(=O)C3=C(CCCC3)C2=O)C1(C)C (centres unmarked) [tetramethrin]	–	4.18	–	5.24	–	4.14	–	failed to significantly alter	58.3	> 85	67.1
